Tests used:
Assay type in all cases: in vivo, guinea pig
[1] = test system: cigarette smoke-exposed guinea pigs; experiment: Measurement of respiratory function (double flow plethysmography) in cigarette smoke-exposed model
Description: (§1) Male Hartley guinea pigs (manufactured by Japan SLC, Inc., Slc: Hartley, SPF) were used in the test. The guinea pigs were purchased at 5 weeks old. The weights at the time of the purchase were about 300 to 350 g. After arrival, the guinea pigs were provided with an acclimation period of 9 days, including the day of receipt. During the above period, the clinical symptoms of the animals were observed once a day. In addition, on the last day of the acclimation period, the animals were weighed and the health status was measured. It was confirmed that there were no abnormal clinical signs or […] in any of the animals. Body weights on the last day of the acclimation (that is, at the beginning of exposure to cigarette smoke) were about 390 to 450 g.
(§2) Experimental animals were prepared with reference to Non Patent Literature 2. Specifically, guinea pigs exposed to cigarette smoke using a smoking exposure system (INH06-CIG01A, INH06-CIG02, M.I.P.S. Inc.) were used in the experiment. Each guinea pig was placed in an exposure holder (one per cage), and the holder was secured in the exposure chamber. The animals were exposed to the smoke of 30 cigarette per day, 5 days a week, for 4 weeks, the smoke being generated by a mainstream smoke generator. In the fourth week, the exposure was for 4 days (smoking period was from […]). As for the cigarettes, Peace (no filter, tar: 28 mg, nicotine: 2.3 mg, Japan Tobacco Inc., Peace is a registered trademark of Japan Tobacco Inc.) was used.
Unless otherwise specified, various evaluations were performed on the day after the last cigarette smoke-exposure in the second week (Day 13) and the day after the last cigarette smoke-exposure (Day 26).
The solvent of Compound A was used as the placebo of the control group.
(§3) The placebo and each drug were administered by forced oral administration into the stomach using a disposable syringe equipped with a gastric catheter. As for the administration frequency, repetitive administration was performed once a day for 25 days from Day 1 to Day 25. The administration time was 1 hour (±5 minutes) before the cigarette smoke-exposure. The dose was 5 mL/kg. The actual amount of each drug administered to each guinea pig was calculated based on the most recent weight.
Respiratory function in conscious guinea pigs was measured by double flow plethysmography using a respiratory function measurement system (Pulmos-I, M.I.P.S Inc.). The measurement parameters were specific airway resistance (sRaw), tidal volume (TV), respiratory rate (RR), minute volume (MV), and peak expiratory flow (PEF). The average value of the measurement values obtained with 100 breaths was considered as the measurement value for each measurement day.

[2] = test system: cigarette smoke-exposed guinea pigs; experiment: Number of cells in bronchoalveolar lavage fluid (BALF) in cigarette smoke-exposed model
Description: as §1, §2, §3
The measurement was performed after the day after the last cigarette smoke exposure (Day 26).
After sacrificing the guinea pigs by bleeding under anesthesia, bronchoalveolar lavage fluid (BALF) was collected according to the following operating procedure.
(1) After ligating the left main bronchus with a thread, a cannula was inserted into the trachea and fixed.
(2) 5 mL of saline was injected into the right lung through the cannula, and the lavage fluid was collected by gentle suctioning. BALF was collected by repeating this procedure twice (a total of 10 mL).
The pellet was suspended in 1 mL of saline, and the number of WBCs were counted using an automated hematology analyzer with a BALF analysis area (XT-2000iV, Sysmex Corporation). The counting was performed by adjusting the smear preparation. The smear preparation was performed by centrifuging the cell suspension again and suspending the obtained pellet in 75% FBS (fetal bovine serum and saline). After drying, the smear preparation was Wright-Giemsa stained.
The percentages of neutrophils, macrophages, eosinophil, and lymphocytes with respect to total WBCs were obtained, and the numbers of the cells per 1 μL were calculated.

[3] = test system: cigarette smoke-exposed guinea pigs; experiment: Measurement of citric acid-induced cough reflex in cigarette smoke-exposed model; conditions: for mean number of cough reflexes: Day 20 or 21, 2 hours after administration, 0.1 mol/L citric acid, 15 minutes
Description: as §1, §2, §3
Measurements were performed 1 day or 2 days after the last cigarette smoke exposure during Week 3 (Day 20 or Day 21).
The measurements were performed 2 hours after the administration of the placebo or various drugs.
The guinea pigs were placed in the inhalation chamber of the respiratory function measurement system (Pulmos-I, M.I.P.S. Co.). Cough reflex was induced by inhaling citric acid (lot no. M8K7523, manufactured by NACALAI TESQUE, INC.) for 3 minutes from the front side of the chamber using an ultrasonic nebulizer. […] The presence or absence of a cough reflex was determined from the sound during the cough reflex, the movement of the animal, and the respiratory function. Before the measurement on the day of the administration, the animals were placed in the chamber for 15 minutes or longer to acclimatize to the experimental environment. Note that the respiratory function (respiratory rate (RR), tidal volume (TV), peak expiratory flow (PEF), and minute volume (MV)) was measured immediately before the citric acid inhalation. The respiratory function was measured by the body side sensor of the respiratory function measurement system.

[4] = Measurement of weights in cigarette smoke-exposed model; conditions: Day 1 to Day 26; Compound A 3, 10, 30 mg/kg, gefapixant 10 mg/kg, oral once a day
Description: as §1
Experimental animals were prepared with reference to Non Patent Literature 2. Specifically, guinea pigs exposed to cigarette smoke using a smoking exposure system (INH06-CIG01A, INH06-CIG02, M.I.P.S. Inc.) were used in the experiment. […]
The placebo and each drug were administered by forced oral administration into the stomach using a disposable syringe equipped with a gastric catheter. […] The actual amount of each drug administered to each guinea pig was calculated based on the most recent weight.
The weights were measured with an electronic balance (MSA4202S, Sartorius Japan K.K.) before the research operation on Days 1, 8, 15, 22, and 26.

[5] = Day 13, 10 mg/kg oral once a day
[6] = Day 26, 10 mg/kg oral once a day
[7] = Day 26, high-dose group 30 mg/kg oral
[8] = Day 26, low-dose group 3 mg/kg oral
[9] = Day 26, medium-dose group 10 mg/kg oral

Q: Which “minute volume (MV), dose dependence” value ([1]; 3, 10, 30 mg/kg oral) does the source give for `O=C1CC(=O)N(c2ccc(NC(=O)c3ccccc3I)cc2)c2ccc3ccccc3c2N1` [Compound B48, 5-[4-(2-iodobenzoylamino)phenyl]-1H-naphtho[1,2-b][1,4]diazepine-2,4(3H,5H)-dione] here?
A: Its value is “tendency of increasing in a dose-dependent manner”.

Q: What about the “peak expiratory flow (PEF), dose dependence” value ([1]; 3, 10, 30 mg/kg oral) of the same compound?
A: The value was “tendency of increasing in a dose-dependent manner”.

Q: What about the “tidal volume (TV), dose dependence” value ([1]; 3, 10, 30 mg/kg oral) of the same compound?
A: The value was “tendency of increasing in a dose-dependent manner”.

Q: And the “sRaw, dose dependence” value ([1]; 3, 10, 30 mg/kg oral, Day 13 and Day 26)?
A: The value was “decreased in a dose-dependent manner”.

Q: What about the “specific airway resistance (sRaw)” value [1, 5] of the same compound?
A: Its value is 1.711 cmH2O·sec.

Q: And the “specific airway resistance (sRaw)” value ([1]; Day 13, high-dose group 30 mg/kg oral once a day)?
A: The value was 1.556 cmH2O·sec.

Q: And the “sRaw compared to the control (placebo) group” value ([1]; Day 13, high-dose group 30 mg/kg oral, P<0.05)?
A: The value was “significant decrease”.

Q: What about the “specific airway resistance (sRaw)” value ([1]; Day 13, low-dose group 3 mg/kg oral once a day) of the same compound?
A: Its value is 1.755 cmH2O·sec.

Q: What about the “specific airway resistance (sRaw)” value [1, 6] of the same compound?
A: The value was 2.017 cmH2O·sec.

Q: And the “respiratory rate (RR), dose dependence” value ([1]; Day 26, 3, 10, 30 mg/kg oral)?
A: Its value is “tendency of decreasing in a dose-dependent manner”.

Q: What about the “specific airway resistance (sRaw)” value ([1]; Day 26, high-dose group 30 mg/kg oral once a day) of the same compound?
A: The value was 1.994 cmH2O·sec.

Q: What about the “specific airway resistance (sRaw)” value ([1]; Day 26, low-dose group 3 mg/kg oral once a day) of the same compound?
A: The value was 2.105 cmH2O·sec.

Q: What about the “PEF compared to the control (placebo) group” value ([1]; all Compound A groups (3, 10, 30 mg/kg)) of the same compound?
A: The value was “higher”.

Q: And the “MV compared to the control (placebo) group” value ([1]; medium-dose group (10 mg/kg) and high-dose group (30 mg/kg))?
A: Its value is “higher”.

Q: And the “mean number of macrophages in BALF” value ([2]; Day 26, 10 mg/kg oral)?
A: Its value is 20.2 ×10^2 cells/μL.

Q: And the “mean number of total WBCs in BALF” value ([2]; Day 26, 10 mg/kg oral)?
A: Its value is 30.1 ×10^2 cells/μL.

Q: What about the “macrophages, dose dependence” value ([2]; Day 26, 3, 10, 30 mg/kg oral) of the same compound?
A: Its value is “smaller than that in the control (placebo) group in a dose-dependent manner”.

Q: What about the “neutrophils, dose dependence” value ([2]; Day 26, 3, 10, 30 mg/kg oral) of the same compound?
A: Its value is “tendency of decreasing in a dose-dependent manner”.

Q: What about the “number of eosinophils compared to the control (placebo) group” value ([2]; Day 26, 3, 10, 30 mg/kg oral) of the same compound?
A: The value was “no significant difference”.

Q: What about the “number of lymphocytes compared to the control (placebo) group” value ([2]; Day 26, 3, 10, 30 mg/kg oral) of the same compound?
A: The value was “no significant difference”.

Q: What about the “total WBCs, dose dependence” value ([2]; Day 26, 3, 10, 30 mg/kg oral) of the same compound?
A: Its value is “smaller than that in the control (placebo) group in a dose-dependent manner”.

Q: What about the “mean number of eosinophils in BALF” value [2, 7] of the same compound?
A: Its value is 5.6 ×10^2 cells/μL.

Q: And the “mean number of lymphocytes in BALF” value [2, 7]?
A: Its value is 1.0 ×10^2 cells/μL.

Q: And the “mean number of macrophages in BALF” value [2, 7]?
A: The value was 12.0 ×10^2 cells/μL.

Q: And the “mean number of neutrophils in BALF” value [2, 7]?
A: Its value is 2.3 ×10^2 cells/μL.

Q: What about the “mean number of total WBCs in BALF” value [2, 7] of the same compound?
A: The value was 20.9 ×10^2 cells/μL.

Q: And the “number of macrophages compared to the control (placebo) group” value [2, 7]?
A: The value was “significantly suppressed”.

Q: What about the “total number of WBCs compared to the control (placebo) group” value [2, 7] of the same compound?
A: Its value is “significantly suppressed”.

Q: What about the “mean number of eosinophils in BALF” value [2, 8] of the same compound?
A: Its value is 4.8 ×10^2 cells/μL.

Q: And the “mean number of lymphocytes in BALF” value [2, 8]?
A: Its value is 1.1 ×10^2 cells/μL.

Q: What about the “mean number of macrophages in BALF” value [2, 8] of the same compound?
A: The value was 25.0 ×10^2 cells/μL.

Q: What about the “mean number of neutrophils in BALF” value [2, 8] of the same compound?
A: The value was 3.1 ×10^2 cells/μL.

Q: What about the “mean number of total WBCs in BALF” value [2, 8] of the same compound?
A: Its value is 33.9 ×10^2 cells/μL.

Q: What about the “mean number of eosinophils in BALF” value [2, 9] of the same compound?
A: The value was 6.1 ×10^2 cells/μL.

Q: What about the “mean number of lymphocytes in BALF” value [2, 9] of the same compound?
A: The value was 1.2 ×10^2 cells/μL.

Q: And the “mean number of neutrophils in BALF” value [2, 9]?
A: Its value is 2.5 ×10^2 cells/μL.

Q: And the “number of cough reflexes compared to the control (placebo) group” value ([3]; 10 mg/kg oral)?
A: The value was “no significant difference”.

Q: And the “mean number of cough reflexes” value ([3]; 10 mg/kg oral)?
A: The value was 6.9.

Q: What about the “number of cough reflexes compared to the control (placebo) group” value ([3]; high-dose group 30 mg/kg oral) of the same compound?
A: The value was “tendency of suppressing the cough reflex”.

Q: What about the “mean number of cough reflexes” value ([3]; high-dose group 30 mg/kg oral) of the same compound?
A: Its value is 3.6.

Q: And the “number of cough reflexes compared to the control (placebo) group” value ([3]; low-dose group 3 mg/kg oral)?
A: The value was “no significant difference”.

Q: What about the “mean number of cough reflexes” value ([3]; low-dose group 3 mg/kg oral) of the same compound?
A: The value was 6.0.

Q: And the “weight changes compared to the control (placebo) group” value [4]?
A: Its value is “comparable”.

Q: With `COc1cc(C(C)C)c(Oc2cnc(N)nc2N)cc1S(N)(=O)=O` [Gefapixant, reference compound] as the compound, how does the “effect on the respiratory function” value ([1]; 10 mg/kg oral) read?
A: The value was “did not have a significant effect”.

Q: And the “specific airway resistance (sRaw)” value [1, 5]?
A: Its value is 1.675 cmH2O·sec.

Q: What about the “sRaw compared to the control (placebo) group” value ([1]; Day 13 and Day 26, 10 mg/kg oral) of the same compound?
A: Its value is “no significant difference”.

Q: What about the “specific airway resistance (sRaw)” value [1, 6] of the same compound?
A: Its value is 2.066 cmH2O·sec.

Q: What about the “effect on the changes in the number of cells in BALF” value ([2]; 10 mg/kg oral) of the same compound?
A: Its value is “did not have an effect”.

Q: And the “mean number of macrophages in BALF” value ([2]; Day 26, 10 mg/kg oral)?
A: The value was 24.4 ×10^2 cells/μL.

Q: And the “mean number of total WBCs in BALF” value ([2]; Day 26, 10 mg/kg oral)?
A: The value was 40.0 ×10^2 cells/μL.

Q: What about the “number of macrophages compared to the control (placebo) group” value ([2]; Day 26, 10 mg/kg oral) of the same compound?
A: The value was “no significant different”.

Q: And the “total number of WBCs compared to the control (placebo) group” value ([2]; Day 26, 10 mg/kg oral)?
A: Its value is “no significant different”.

Q: And the “number of cough reflexes compared to the control (placebo) group” value ([3]; 10 mg/kg oral)?
A: The value was “no significant difference”.

Q: What about the “mean number of cough reflexes” value ([3]; 10 mg/kg oral) of the same compound?
A: Its value is 4.5.

Q: What about the “weight changes compared to the control (placebo) group” value [4] of the same compound?
A: Its value is “comparable”.
